# Where a SMILES comes first, the peptide text is derived from it. The star is where a group is joined. Cbz = O=C(OCc1ccccc1)*
# Legend:
# HCT-116 xenografts = HCT-116 xenografts in SCID mice; assay type: in vivo; details: HCT-116 xenografts, 100 mg/kg orally, two weeks
# Procedure: To explore the effect of SFI003 on the growth of CRC, approximately 3 × 10^6 HCT-116 cells or 8 × 10^6 SW480 cells were collected and mixed with Matrigel (Corning, NY, USA) at a 1:1 ratio by volume and then injected into the lower back region of mice. When tumors were palpable, mice were randomly divided into four groups. One group received vehicle as a control, while the other three groups were orally administered SFI003 at a dosage of 100 or 200 mg/kg or capecitabine at a dosage of 100 mg/kg for two continuous weeks. The tumor sizes and mouse body weights were monitored every other day. At the end of the experiment, tumors and blood samples were collected for further studies. The tumor size was evaluated according to Eq.: tumor size (mm^3) = (length × width^2) × 0.5.
# SRSF3 = biological target: T1, SRSF3 (Homo sapiens, UniProt P84103); test: Western blot of SRSF3 protein in HCT-116 and SW480 cells; assay type: cell-based; parameters: endogenous in cells; host or cells: HCT-116 and SW480; details: HCT-116 and SW480; 20 μM SFI003 plus 3 μM MLN4924, 50 μM CHQ or 10 μM MG132 for 12 h
# T1 sequence (P84103 1-164): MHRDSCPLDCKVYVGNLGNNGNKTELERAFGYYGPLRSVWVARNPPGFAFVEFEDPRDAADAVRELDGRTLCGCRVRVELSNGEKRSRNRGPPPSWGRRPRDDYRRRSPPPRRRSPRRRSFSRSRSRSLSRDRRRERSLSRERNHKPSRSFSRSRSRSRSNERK
# Procedure: After cell lysates were prepared, protein concentrations were determined by a BCA assay (TaKaRa, Kusatsu, Japan). Equal amounts of protein were separated by SDS–PAGE and transferred to polyvinylidene difluoride membranes. After normalization, the blots were probed with appropriate antibodies, as described previously.
# HCT-116 cells = test: MTT assay in HCT-116 cells; assay type: cell-based, Human; details: Homo sapiens; HCT-116 cells, 72 h
# Procedure: (§1) Human CRC cell lines were purchased from the American Type Culture Collection (VA, USA). HCT-116 cells were cultured in DMEM (HyClone, Utah, USA) containing 10% fetal bovine serum (FBS; Gibco, NY, USA). SW480 cells were cultured in RPMI 1640 medium (HyClone, Utah, USA) containing 10% FBS. All cells were cultured in an incubator (Thermo, CA, USA) at a constant temperature of 37 °C and 5% CO2. N-Acetylcysteine (NAC), Trolox, MLN4924, 5-Fu, and capecitabine were purchased from MedChemExpress LLC (Shanghai, China). MG132 was purchased from Santa Cruz Biotech (CA, USA). Chloroquine (CHQ) was purchased from Sigma (CA, USA). Rapamycin was purchased from Beyotime (Shanghai, China). Primary antibodies against SRSF3 and E-Cadherin were purchased from Abcam (Cambridge, UK). Primary antibodies against N-Cadherin, Caspase 3, DHCR24, CAT, Akt and phospho-Akt (Ser473) were purchased from Cell Signaling Technology (MA, USA). Primary antibodies against β-actin, mTOR, and phospho-mTOR ([…]) were purchased from Beyotime (Shanghai, China). Primary antibody against Vimentin was purchased from Proteintech (Wuhan, China). Primary antibody against Bcl-2 was purchased from Santa Cruz Biotech (CA, USA). Primary antibody against Flag was purchased from MBL Beijing Biotech (Beijing, China). CRC cells were transfected with 100 nM siRNA or treated with various doses of SFI003 for 24 h, 48 h, or 72 h before being subjected to MTT assay as described previously.
# SW480 cells = test: MTT assay in SW480 cells; assay type: cell-based, Human; details: Homo sapiens; SW480 cells, 72 h
# Procedure: as §1
smiles,measurement,setting,value
"CCCCCOC(=O)Nc1nc(=O)n([C@@H]2O[C@H](C)[C@@H](O)[C@H]2O)cc1F [capecitabine, reference compound]",number of tumors that disappeared,HCT-116 xenografts,one
NS(=O)(=O)OC[C@@H]1C[C@@H](n2ccc3c(N[C@H]4CCc5ccccc54)ncnc32)C[C@@H]1O [MLN4924],effect on SFI003-induced SRSF3 degradation,SRSF3,rescued
CC(C)C[C@@H](C=O)NC(=O)[C@H](CC(C)C)NC(=O)[C@H](CC(C)C)NC(=O)OCc1ccccc1 [MG132] (Cbz-Leu-Leu-Leu-aldehyde),effect on SFI003-induced SRSF3 degradation,SRSF3,rescued
"CO[C@H]1C[C@@H]2CC[C@@H](C)[C@@](O)(O2)C(=O)C(=O)N2CCCC[C@H]2C(=O)O[C@H]([C@H](C)C[C@@H]2CC[C@@H](O)[C@H](OC)C2)CC(=O)[C@H](C)/C=C(\C)[C@@H](O)[C@@H](OC)C(=O)[C@H](C)C[C@H](C)/C=C/C=C/C=C/1C [rapamycin, reference compound]",IC50,HCT-116 cells,33.2 µM
same,IC50,SW480 cells,16.8 µM
